Results: US10103402B2, “Liquid phenothiazine catholytes for non-aqueous redox flow batteries” (University of Kentucky Research Foundation, priority 2015, dated 2018)

Columns and labels:
[1] = cited from earlier work
[2] = Cyclic voltammetry, half-wave oxidation potentials; format: physicochemical; conditions: for E1/2^+/0 vs. Li^+/0, LiBF4 in PC: 10 mM analyte in 0.5M LiBF4/PC, 100 mV/s; for Oxidation potential higher than EPT, LiPF6/EC/EMC: difference of E1/2^+/0 to EPT in LiPF6/EC/EMC; for Oxidation potential higher than EPT, TBA-PF6/DCM: difference of E1/2^+/0 to EPT in TBA-PF6/DCM
Method: The compounds of the present invention provide for components of a redox flow battery system, particularly as part of a catholyte composition. The studies described herein detail their effectiveness for such. The position and reversibility of redox events was determined by cyclic voltammetry (CV), performed in dichloromethane (DCM) containing 0.1 M tetra(n-butyl)ammonium hexafluorophosphate (TBA-PF6) (FIG. 7), in EC/EMC (3:7) containing 1.2 M LiPF6 (FIG. 2), or in propylene carbonate (PC) containing 0.5 M LiBF4 (FIG. 2). Both compounds show reversible first oxidations in all electrolytes. In TBA-PF6/DCM, MEPT (E1/2^+/0=0.30 V vs. Cp2Fe^+/0) and MEEPT (E1/2^+/0=0.29 V vs. Cp2Fe^+/0) oxidize at 0.03 and 0.02 V higher, respectively, than EPT (Table 1). In contrast, though the oxidation potentials of the new compounds were still higher than that of EPT in LiPF6/EC/EMC, a larger difference was observed: MEPT (E1/2^+/0=3.56 V vs. Li^+/0) and MEEPT (E1/2^+/0=3.60 V vs. Li^+/0) oxidized at […] higher, respectively, than EPT (Table 1). The increase in oxidation potential in the lithium-based electrolytes can be attributed to the coordination, through the oligoether side chain, of MEPT to Li^+, a characteristic that is even more pronounced in the case of MEEPT.
(§1) Cyclic voltammetry (CV) experiments were performed using a CH Instruments 600D potentiostat using a three-electrode system in either 100 mM TBAPF6 in anhydrous DCM or in 1.2 M LiPF6 in ethylene carbonate (EC)/ethyl methyl carbonate (EMC) (3:7 wt. ratio) containing […] redox shuttle. Cyclic voltammograms were also recorded in 0.5 M LiBF4 in propylene carbonate (PC) containing 10 mM analyte. Glassy carbon was used as the working electrode, platinum wire as the counter electrode and either freshly anodized Ag/AgCl (in DCM) or lithium metal (in battery electrolyte) as reference electrodes. Oxidation potentials are reported relative to ferrocenium/ferrocene) (Cp2Fe^+/0) in DCM or to Li^+/0 in battery electrolyte. Voltammograms were recorded at a scan rate of 100 mV/s. To determine diffusion coefficients, voltammograms were recorded at variable rates between 5 and 500 mV/s at analyte concentration of 80 mM in 1.2 M LiPF6 in EC/EMC and 10 mM in 0.5 M LiBF4 in PC.

[3] = Cyclic voltammetry at variable scan rates, diffusion coefficients; format: physicochemical; conditions: for Diffusion Coefficient, neutral, TBA-PF6 in DCM / Diffusion Coefficient, oxidized, TBA-PF6 in DCM: 10 mM analyte in 100 mM TBA-PF6/DCM, 10 to 200 mV/s; for Diffusion Coefficient, neutral, LiBF4 in PC / Diffusion Coefficient, oxidized, LiBF4 in PC: 10 mM analyte in 0.5M LiBF4/PC; for Diffusion Coefficient, neutral, LiBF4 in PC / Diffusion Coefficient, neutral, LiPF6 in EC/EMC / Diffusion Coefficient, oxidized, LiBF4 in PC / Diffusion Coefficient, oxidized, LiPF6 in EC/EMC: 5 to 500 mV/s; for Diffusion Coefficient, neutral, LiPF6 in EC/EMC / Diffusion Coefficient, oxidized, LiPF6 in EC/EMC: 80 mM analyte in 1.2M LiPF6 in EC/EMC (3:7)
Method: MEPT and MEEPT were subjected to CV experiments at variable scan rates in the carbonate-based electrolytes and DCM to determine their diffusion coefficients (FIG. 2, 8). At 80 mM, MEPT and MEEPT diffuse more slowly than EPT. This observation can be explained by the interaction of MEPT and MEEPT with a lithium ion from the electrolyte, which increases the size/molecular weight of the shuttle. Because the additional oxygen in MEEPT enhances the ability for Li^+ chelation, this effect is posited to be responsible for the further reduction in its diffusion rate.
as §1

[4] = Solubility / miscibility in battery electrolyte and organic solvents; format: physicochemical; conditions: for Concentration corresponding to 50 wt. % miscibility: 1.2 M LiPF6 in EC/EMC (3:7 wt. ratio)
Text: The compounds of the present invention can be prepared by deprotonation of phenothiazine and a subsequent SN2 reaction with a corresponding alkyl halide. This process has produced MEPT and MEEPT in good yields. The compounds were isolated as colorless oils that were miscible with a variety of organic solvents. Both derivatives were miscible up to 50 wt. % in the common battery electrolyte, 1.2 M LiPF6 in ethylene carbonate/ethyl methyl carbonate (EC/EMC, 3:7 wt. ratio) (Table 1), which corresponds to a concentration of ca. 2 M. In contrast, the solubility of EPT is limited to 0.1 M in the same electrolyte.
Next, to evaluate MEPT and MEEPT as cathode candidates for RFBs, the performance of the redox-active species over multiple charge and discharge cycles was analyzed, albeit in a static environment, using galvanostatic cycling in MEPT/Li and MEEPT/Li coin cells. Here we employed the electrolyte 0.5 M LiBF4 in PC in which both MEPT and MEEPT are miscible at as high as 50 wt. % (Table 1). The positive electrode was composed of graphite felt soaked in catholyte consisting of 10 mM active species in 0.5 M LiBF4 in PC, and Li metal was employed as the negative electrode. The electrodes were separated by a lithiated Nafion membrane. The coin cells were cycled between 3.2 and 3.8 V at a rate of C/5 up to 100% SOC so that the first oxidation would be accessed. The theoretical capacities of EPT, MEPT, and MEEPT are 118 mAh/g, 104 mAh/g, and 89 mAh/g, respectively. The charge and discharge plateaus occur in accordance with the potentials determined by CV; they represent the formation and reversible reduction of the respective radical cations. […] The gap between the charge and discharge capacities may result from crossover of the charged species. […] EPT, MEPT, and MEEPT retained ca. 76%, 68% and 67%, respectively, of the original charge capacity after 30 cycles, over which time the coulombic efficiencies for all three catholytes stabilized at ca. 90%.

[5] = Radical cation stability by UV-vis absorption spectroscopy; format: physicochemical; conditions: 0.167 mM radical cation in DCM, oxidation with TBPA-SbCl6, monitored 5 h
Text: The stability of the radical cation—typically the more reactive form of the electro-active material—can be monitored using UV-vis absorption spectroscopy as these species absorb light in the visible region. This method has proven to be useful for the evaluation of redox shuttle candidates for overcharge protection in LIBs, another application in which the radical cation is involved in electron transfer. The stability of the EPT, MEPT, and MEEPT radical cations were compared in dilute dichloromethane solutions after generation through chemical oxidation with tris(4-bromophenyl)aminium hexachloroantimonate (TBPA-SbCl6).
UV-vis spectra were collected using optical glass cuvettes (Starna) with 1 cm path length with an Agilent 8453 diode array spectrometer. Radical cations were generated in anhydrous DCM by the addition of a 1 mL DCM solution of 0.50 mM TBPA-SbCl6 to a 2 mL DCM solution containing 2.5 mM analyte to produce a final solution containing 0.17 mM radical cation with 1.7 mM analyte, which generates 0.17 mM analyte radical cation with a 9-fold excess of neutral analyte. The cuvettes were capped, and spectra were collected for 5 h.

[6] = carbonate-based electrolytes; cited from earlier work
[7] = Cyclic voltammetry, half-wave oxidation potentials; format: physicochemical; conditions: for E1/2^+/0 vs. Cp2Fe^+/0 in TBA-PF6 in DCM: 80 mM analyte in 100 mM TBA-PF6/DCM, 100 mV/s scan rate; for E1/2^+/0 vs. Li^+/0, LiPF6 in EC/EMC: 80 mM analyte in 1.2M LiPF6 in EC/EMC (3:7 wt. ratio), 100 mV/s

Compound | Solubility in organic solvents and electrolytes ([1]; organic solvents and electrolytes) [mM] | E1/2^+/0 vs. Li^+/0, LiBF4 in PC [2] [V] | Diffusion Coefficient, neutral, TBA-PF6 in DCM [3] | Diffusion Coefficient, neutral, LiBF4 in PC [3] | Diffusion Coefficient, neutral, LiPF6 in EC/EMC [3] | Diffusion Coefficient, oxidized, TBA-PF6 in DCM [3] | Diffusion Coefficient, oxidized, LiBF4 in PC [3] | Diffusion Coefficient, oxidized, LiPF6 in EC/EMC [3] | Solubility 0.5M LiBF4 in PC ([4]; 0.5 M LiBF4 in PC) [M] | Radical cation stability, change of absorption spectra [5] | Oxidation potential vs. Li^+/0 [6] | E1/2^+/0 vs. Cp2Fe^+/0 in TBA-PF6 in DCM [7] [V] | E1/2^+/0 vs. Li^+/0, LiPF6 in EC/EMC [7] [V] | Solubility in organic solvents ([1]; organic solvents) | Oxidation potential higher than EPT, LiPF6/EC/EMC [2] [V] | Oxidation potential higher than EPT, TBA-PF6/DCM [2] [V] | Concentration corresponding to 50 wt. % miscibility [4]
CCN1c2ccc(C(F)(F)F)cc2Sc2cc(C(F)(F)F)ccc21 [BCF3EPT, 3,7-bis(trifluoromethyl)-N-ethylphenothiazine] | 1500 to 2000 |  |  |  |  |  |  |  |  |  |  |  |  |  |  |  | 
CCN1c2ccccc2Sc2ccccc21 [EPT, N-ethylphenothiazine, reference compound] |  | 3.60 | 3.9 ×10^−6 cm^2s^−1 | 1.5 ×10^−6 cm^2s^−1 | 1.0 ×10^−6 cm^2s^−1 | 2.4 ×10^−6 cm^2s^−1 | 1.4 ×10^−6 cm^2s^−1 | 0.7 ×10^−6 cm^2s^−1 | ≤ 0.1 | remain almost unchanged | ca. 3.5 V | 0.27 | 3.51 | ca. 0.1 M |  |  | 
COCCOCCN1c2ccccc2Sc2ccccc21 [MEEPT, N-[2-(2-methoxyethoxy)ethyl]phenothiazine] |  | 3.64 | 2.5 ×10^−6 cm^2s^−1 | 0.7, 0.7 ×10^−6 cm^2s^−1 | 0.2 ×10^−6 cm^2s^−1 | 1.6 ×10^−6 cm^2s^−1 | 0.7, 0.7 ×10^−6 cm^2s^−1 | 0.1 ×10^−6 cm^2s^−1 |  | remain almost unchanged |  | 0.29 | 3.60 |  | 0.09 | 0.02 | ca. 2 M
COCCN1c2ccccc2Sc2ccccc21 [MEPT, N-(2-methoxyethyl)phenothiazine] |  | 3.64 | 3.7 ×10^−6 cm^2s^−1 | 1.1 ×10^−6 cm^2s^−1 | 0.4 ×10^−6 cm^2s^−1 | 2.6 ×10^−6 cm^2s^−1 | 1.0 ×10^−6 cm^2s^−1 | 0.2 ×10^−6 cm^2s^−1 |  | remain almost unchanged |  | 0.30 | 3.56 |  | 0.06 | 0.03 | ca. 2 M
